“And” between values parts separate entries of the source, which are not always exact repeats. Equal values may be shown once.
Assays:
[1] = test system: P. falciparum transmission to Anopheles stephensi mosquitoes; experiment: P. falciparum standard membrane-feeding assay (SMFA), luciferase oocyst readout; assay type: in vivo, Plasmodium falciparum; settings: 10 µM; for prevalence of infection, % of the DMSO control / mean normalised luciferase intensity: indirect mode; for mean normalised luciferase intensity: 24 h gametocyte incubation, oocysts 8 days later; for Average oocyst intensity / Prevalence: mode indirect, per experiment
Method: SMFAs were performed commercially by TropiQ Health Sciences (Nijmegen, The Netherlands)[26]. Cultures of mature stage V gametocytes of P. falciparum expressing a GFP-Luciferase fusion protein under the control of the hsp70 promoter were treated with DMSO or 10 µM of test compound for 24 h (indirect mode). They were then mixed with uninfected erythrocytes and pelleted. The cell pellet was resuspended in human serum to form the blood meal and fed to Anopheles stephensi mosquitoes. […] Eight days after infection, mosquitoes were individually processed and their lysate assessed for luciferase activity in comparison to uninfected mosquitoes.

[2] = test system: P. falciparum male gametogenesis; experiment: Phenotypic immunofluorescence assay of male gamete formation; assay type: cell-based, Plasmodium falciparum; settings: 10 µM, 24 h treatment, 0–20 min post induction
Method: In vitro evolution followed by whole-genome analysis is the primary approach currently used for understanding how compounds act in malaria parasites. As it is not currently feasible to generate resistant mutants to compounds that are only active in the gametocyte stage (resistance generation requires extensive rounds of replication in the presence of compound), phenotypic immunofluorescence assays were performed to evaluate compound activity on male gamete formation. Gametocytes treated with 10 µM of each compound were sampled at 0, 2, 3, 4, 6, 8, 10, and 20 min post induction of gamete formation before imaging (Fig. 4). Individual male cells were then extracted from the images and analysed for shape and haploid chromosome number/DNA content to quantitatively measure the progression of DNA replication (n = 198–668 cells) (Fig. 5a).
Day 14 gametocyte culture was divided into 4 ml aliquots and treated either with DMSO or 10 µM test compound. After 24 h, 500 µl aliquots of the non-activated gametocytes were fixed in an equal volume of 8% paraformaldehyde (PFA) warmed to 37 °C to generate Time = 0 min (t = 0) samples. Gamete formation was induced in the remainder of the cultures by cooling to RT and addition of 500 µl ookinete medium. At t = 2, 3, 4, 6, 8, 10, and 20 min 500 µl of culture was removed and immediately fixed in equal volume of 8% PFA at room temperature for 15 min. Fixed cells were diluted in PBS and allowed to settle onto poly-L-lysine-coated glass coverslips overnight. The next day, cells were washed in PBS, permeabilized in 0.1% Triton X-100 and blocked in PBS + 10% FBS. Cells were stained with mouse anti-alpha tubulin (Sigma) clone DM1A (1:500 dilution) and rabbit anti-Glycophorin A (Abcam) clone EPR8200 (1:1000 dilution). Staining was visualised with anti-mouse […] and anti-rabbit Alexa555 (Thermo-Fisher) both at 1:1000 dilution. Coverslips were mounted onto glass slides with VectaShield mountant (Vector Laboratories) containing 4′,6-diamidino-2-phenylindole (DAPI) to visualise cellular DNA. Cells were imaged at random (n = 195–668 cells per test compound) using a Nikon Ti-E widefield microscope using a × 100 objective lens and taken in 0.2 µm slice z-stack images to capture the whole cell. All images were converted to maximum intensity projections in NIS Elements v4.20 and all further image processing performed in ICY. Individual cells were manually selected and automatically extracted from each image using the Active Contours plugin gated to the tubulin staining. Using the ROI Statistics plugin, the following parameters were calculated for each cell and exported to MS Excel: Cell area, Cell roundness, Cell elongation, and Average intensity of blue channel (DNA). […] Outlier cells from the curve were all exflagellating (Supplementary Fig. 6). These two parameters were combined as a ratio of roundness:elongation to produce the parameter Cell shape. Cellular DNA content was estimated by multiplying the average pixel intensity of the blue channel (after subtracting the background intensity of an empty area in the same parent image) with the total cell area.

[3] = test system: P. berghei 507 strain in mice, transmission to Anopheles stephensi; experiment: P. berghei mosquito (direct) feeding assay in infected mice; assay type: in vivo, Plasmodium berghei; settings: for transmission blocking efficacy at the oocyst level: 24 h before mosquito feeding; for suppression of gametocytaemia compared to vehicle-only controls: 24 h exposure; for effect on asexual parasitaemia: single dose; for Infection Prevalence (%) / Mean oocysts per mosquito / Asexual parasitemia (%) Before treatment / Gametocytemia (%) Before treatment / Asexual parasitemia (%) 24hr After treatment / Gametocytemia (%) 24hr After treatment: per mouse; for Asexual parasitemia (%) Before treatment / Gametocytemia (%) Before treatment / Asexual parasitemia (%) 24hr After treatment / Gametocytemia (%) 24hr After treatment: 50mg/kg; for Asexual parasitemia (%) Before treatment / Gametocytemia (%) Before treatment: baseline
Method: Six- to eight-week female T0 mice were treated with phenylhydrazine 3 days prior to intraperitoneal (IP) inoculation with 100 µl of mouse blood infected with the constitutively GFP expressing P. berghei 507 strain[39]. On day 3 after infection, thin blood smears were taken from tail blood to quantify parasitaemia and gametocytaemia. […] […] Twenty-four hours after feeding, unfed mosquitoes were removed and remaining mosquitoes maintained for a further 9 days on sucrose solution. Mosquito midguts were then dissected, imaged and oocysts quantified by semi-automated computer analysis.

[4] = test system: P. falciparum transmission to Anopheles stephensi mosquitoes; experiment: P. falciparum standard membrane-feeding assay (SMFA), luciferase oocyst readout; assay type: in vivo, Plasmodium falciparum; settings: 10 µM
[5] = Aqueous solubility (DMPK); assay type: physicochemical; settings: aqueous medium
Method: (§1) DMPK analyses were performed by the Dundee University Drug Discovery Unit and BPCA/DDD599 stability analysis were undertaken by chemists at GlaxoSmithKline using in-house, standardised approaches.

[6] = Pharmacokinetic analysis in naïve mice; assay type: in vivo, BALB/c mice
Method: DDD291 and DDD881 were then evaluated for in vivo transmission-blocking activity in a mouse model of transmission. […] DDD881 was also administered similarly on day 4 of infection only 30 min prior to mosquito feed in a separate cohort of mice (Supplementary Data 5).
Eight phenylhydrazine-treated mice were infected with P. berghei constitutively expressing GFP. On day 3 of infection, they were assigned into four groups of two mice (DMSO A + B; DDD291 A + B; DDD881 A + B and C + D). Three groups received either 50 mg kg^−1 DDD291, 50 mg kg^−1 DDD881 or DMSO + vehicle control by IP injection. […] The fourth group received a 50 mg kg^−1 DDD881 dose on day 4, 30 min prior to mosquito feed. c Seven days after feeding, mosquitoes were dissected (n = 17–52 per condition) and oocysts recorded by fluorescent microscopy and automated image analysis. Horizontal bars indicate the mean. d PK analysis of DDD881. BALB/c mice were dosed with 50 mg kg^−1 DDD881 (n = 3) and plasma concentrations were monitored over time.

[7] = Mouse liver microsome clearance; assay type: in vitro ADME
Method: as §1

[8] = Parallel artificial membrane permeability assay (PAMPA); assay type: in vitro ADME
Method: as §1

[9] = Dose 30min prior, listed as DDD881
[10] = mouse, plasma, intraperitoneal, 50 mg kg^−1, BALB/c mice, n = 3

SMILES: O=C(CCl)Nc1ccc(Br)cc1 [BPCA, N-(4-bromophenyl)-2-chloroacetamide]
- prevalence of infection, % of the DMSO control [1]: 25.12%
- mean normalised luciferase intensity [1]: 5.27 arbitrary units
- phenotype of male gametogenesis (IFA) [2]: rounded up after induction but most cells did not replicate their DNA and none exflagellated

SMILES: O=S(=O)(NCC1(O)CCOc2ccccc21)c1ccc(Br)s1 (stereo not drawn) [DDD01035881]
- blockade on oocyst intensity ([3]; 50 mg kg^−1 IP, 30 min before the feed): 99.6%
- transmission blocking efficacy at the oocyst level ([3]; 50 mg kg^−1 IP): no transmission blocking efficacy
- suppression of gametocytaemia compared to vehicle-only controls ([3]; 50 mg kg^−1 IP): not impacted
- effect on asexual parasitaemia ([3]; 50 mg kg^−1 IP): not impacted
- Infection Prevalence (%) [3, 9]: 54.35% and 23.08%
- Mean oocysts per mosquito [3, 9]: 1.43 and 0.60
- Infection Prevalence (%) ([3]; Dose 24hr prior to feeding): 100%
- Mean oocysts per mosquito ([3]; Dose 24hr prior to feeding, listed as DDD881): 330.22 and 190.61
- Average oocyst intensity ([1]; listed as DDD881): 4.2 and 4.1
- Prevalence ([1]; listed as DDD881): 1.4% and 0.0%
- mean normalised luciferase intensity ([4]; direct mode): 0.26
- prevalence, % of DMSO control ([4]; direct mode): 0.49%
- Average oocyst intensity ([4]; mode direct, per experiment): 2.8
- Prevalence ([4]; mode direct, per experiment): 0.0%
- phenotype of male gametogenesis (IFA) [2]: only a few cells replicated their DNA and none exflagellated
- solubility [5]: > 250 µM
- plasma concentration ([6]; 50 mg kg^−1, up to 120 min after dosing): ~ 1000 ng ml^−1
- Cmax [6, 10]: 1.58 µg/mL
- Tmax [6, 10]: 4.98 min

SMILES: OC1(CN2CCC(Oc3cccc(C(F)(F)F)c3)CC2)CCNC1 (stereo not drawn) [DDD01245291]
- transmission blocking efficacy at the oocyst level ([3]; 50 mg kg^−1 IP): not possible to measure a reduction in transmission at the oocyst level
- suppression of gametocytaemia compared to vehicle-only controls ([3]; 50 mg kg^−1 IP): ~ 6 fold
- effect on asexual parasitaemia ([3]; 50 mg kg^−1 IP): did not affect asexual parasitaemia
- Infection Prevalence (%) ([3]; Dose 24hr prior to feeding): 100%
- Mean oocysts per mosquito ([3]; Dose 24hr prior to feeding, listed as DDD291): 239.06 and 211.28
- Asexual parasitemia (%) Before treatment ([3]; listed as DDD291, 50 mg/kg): 0.86% and 0.55%
- Gametocytemia (%) Before treatment ([3]; listed as DDD291, 50 mg/kg): 0.32% and 0.16%
- Asexual parasitemia (%) 24hr After treatment ([3]; listed as DDD291, 50 mg/kg): 5.70% and 4.55%
- Gametocytemia (%) 24hr After treatment ([3]; listed as DDD291, 50 mg/kg): 0.30% and 0.51%
- prevalence of infection, % of the DMSO control [1]: no infected mosquitoes observed
- mean normalised luciferase intensity [1]: 1.37 arbitrary units
- Prevalence [1]: 0.0%
- Average oocyst intensity ([1]; listed as DDD291): 2.7 and 3.2 and 3.3
- phenotype of male gametogenesis (IFA) [2]: arrested after rounding up
- solubility [5]: > 250 µM
- mouse liver microsome clearance rate [7]: 4.2 ml min^−1 g^−1 Liver
- Papp [8]: 5.9 nm/s

SMILES: CC(C)CN1CCn2nc(CNc3ncnc4[nH]ccc34)cc2C1 [DDD01249504]
- Asexual parasitemia (%) Before treatment ([3]; listed as DDD504, 50 mg/kg): 0.74% and 0.98%
- Gametocytemia (%) Before treatment ([3]; listed as DDD504, 50 mg/kg): 0.21% and 0.15%
- Asexual parasitemia (%) 24hr After treatment ([3]; listed as DDD504, 50 mg/kg): 5.35% and 7.03%
- Gametocytemia (%) 24hr After treatment ([3]; listed as DDD504, 50 mg/kg): 1.21% and 1.88%
- phenotype of male gametogenesis (IFA) [2]: the second and third divisions were delayed with a smaller proportion of cells reaching 8n

SMILES: Cc1ccc(-c2cc(C(=O)NCCC3=CCCCC3)[nH]n2)o1 [DDD01255968]
- phenotype of male gametogenesis (IFA) [2]: did not replicate their DNA and remained with 1n genome copies
